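Briefly, cells in 96-well plates were exposed to five compound concentrations for 48 h, and endpoints were estimated by linear interpolation. GI50 marks 50% less growth. Definition used: TGI = concentration required for complete inhibition of growth.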
Tests used:
Assay in all cases: growth of human tumour cells (NCI), 48 h
CAKI-1 renal = test system: CAKI-1 renal
UO-31 renal = test system: UO-31 renal
NCI-H23 lung = test system: NCI-H23 lung
M14 melanoma = test system: M14 melanoma
SK-MEL-5 melanoma = test system: SK-MEL-5 melanoma
BT-549 breast = test system: BT-549 breast
MDA-MB-231 breast = test system: MDA-MB-231 breast
HCT-15 colon = test system: HCT-15 colon
SK-MEL-28 melanoma = test system: SK-MEL-28 melanoma
SN12C renal = test system: SN12C renal
MDA-MB-435 = test system: MDA-MB-435
SNB-75 CNS = test system: SNB-75 CNS
SF-539 CNS = test system: SF-539 CNS
SF-295 CNS = test system: SF-295 CNS
OVCAR-5 ovarian = test system: OVCAR-5 ovarian
CCRF-CEM leukemia = test system: CCRF-CEM leukemia
SK-OV-3 ovarian = test system: SK-OV-3 ovarian
K-562 leukemia = test system: K-562 leukemia
ACHN renal = test system: ACHN renal
SNB-19 CNS = test system: SNB-19 CNS
UACC-257 melanoma = test system: UACC-257 melanoma
HOP-62 NSCLC = test system: HOP-62 NSCLC
HS 578T breast = test system: HS 578T breast

Compound: C=CC(=O)N1CCN(c2nc(OC[C@@H]3CCCN3C)nc3c2CCN(c2cccc4cccc(C)c24)C3)C[C@@H]1CC#N
- GI50 (CAKI-1 renal): 1180 nM
- TGI (CAKI-1 renal): 2460 nM
- GI50 (UO-31 renal): 1280 nM
- TGI (UO-31 renal): 2540 nM
- GI50 (NCI-H23 lung): < 10 nM
- TGI (NCI-H23 lung): 1500 nM
- GI50 (M14 melanoma): 1820 nM
- TGI (M14 melanoma): 3570 nM
- GI50 (SK-MEL-5 melanoma): 1680 nM
- TGI (SK-MEL-5 melanoma): 3060 nM
- GI50 (BT-549 breast): 1580 nM
- TGI (BT-549 breast): 3080 nM
- GI50 (MDA-MB-231 breast): 1390 nM
- TGI (MDA-MB-231 breast): 2780 nM
- GI50 (HCT-15 colon): 1450 nM
- TGI (HCT-15 colon): 2920 nM
- GI50 (SK-MEL-28 melanoma): 1710 nM
- TGI (SK-MEL-28 melanoma): 3090 nM
- GI50 (SN12C renal): 1460 nM
- TGI (SN12C renal): 2870 nM
- GI50 (MDA-MB-435): 1700 nM
- TGI (MDA-MB-435): 3190 nM
- GI50 (SNB-75 CNS): 1090 nM
- TGI (SNB-75 CNS): 2310 nM
- GI50 (SF-539 CNS): 1630 nM
- TGI (SF-539 CNS): 3040 nM
- GI50 (SF-295 CNS): 1530 nM
- TGI (SF-295 CNS): 2900 nM
- GI50 (OVCAR-5 ovarian): 1580 nM
- TGI (OVCAR-5 ovarian): 3260 nM
- GI50 (CCRF-CEM leukemia): 475 nM
- TGI (CCRF-CEM leukemia): 2780 nM
- GI50 (SK-OV-3 ovarian): 1680 nM
- TGI (SK-OV-3 ovarian): 3170 nM
- GI50 (K-562 leukemia): 1710 nM
- TGI (K-562 leukemia): 4280 nM
- GI50 (ACHN renal): 953 nM
- TGI (ACHN renal): 2140 nM
- GI50 (SNB-19 CNS): 1590 nM
- TGI (SNB-19 CNS): 2990 nM
- GI50 (UACC-257 melanoma): 1790 nM
- TGI (UACC-257 melanoma): 3740 nM
- GI50 (HOP-62 NSCLC): < 10 nM
- TGI (HOP-62 NSCLC): 1640 nM
- GI50 (HS 578T breast): 1710 nM
- TGI (HS 578T breast): 4530 nM
